Laboratory results as given in patent US20240279618A1, “RECEPTOR TYROSINE KINASE AGONIST, COMPOSITION FOR CELL CULTURE MEDIUM, AND […] MAINTENANCE COMPOSITION” (SEKISUI CHEMICAL CO., LTD., priority 2021, published 2024).

Tested on: mouse fibroblast cell line NIH/3T3
Experiment: Promotion of fibroblast growth by VHH (homodimer), cell growth assay
Format: cell-based
Conditions: NIH/3T3, serum-free, 2 days, 2-fold dilution series, 4-parameter fit; read-out: EC50 of the growth of cultured fibroblasts
Experimental: A mouse fibroblast cell line NIH/3T3 was used as a fibroblast. A mouse fibroblast cell line NIH/3T3 was obtained from ECACC through a domestic agent, subjected to extended culture, then cryopreserved at −80° C. using CellBanker1 plus (manufactured by ZENOAQ), and used. […]
The cell growth assay for bFGF was performed according to the following procedure. […] The plate was further left to stand for 8 minutes, and then the luminescence in each well was measured with a Synergy HTX plate reader (manufactured by BioTek) with a sensitivity set (Gain) of 200 and a measurement time of 1 s/well. […]
The measurement was performed at three points at each concentration of the test substance, and the conditions were set such that for the measurement at a single concentration, 100 ng/mL of bFGF was set as a positive control and a condition of no addition was set as a negative control. […] The EC50 measurement data were fitted to 4-parameter fit according to an ordinary method by control software attached to a plate reader, and an EC50 value was calculated.

| Molecule | EC50 |
| --- | --- |
| FGF2: fibroblast growth factor (basic), human, recombinant (154aa), positive control; SEQ ID NO: 58 [reference compound] | 5.1 nM |
| #1-L4-#1: dimer of VHH #1 with linker L4 (GSEGKSSGSGSESKST), SEQ ID NO: 23 (protein, #1-L4-#1) VHH: QLQLVESGGGSVQAGGSLRLSCAASRSLSRFNVWTWYRQAPVKQRELVASITKSGDTNYAESVKGRFIISRDDDKNTVYLQMNNLKSEDTGIYYCAGSYYSGSYLYPSPGGFSVWGQGTQVTVSSGSEGKSSGSGSESKSTQLQLVESGGGSVQAGGSLRLSCAASRSLSRFNVWTWYRQAPVKQRELVASITKSGDTNYAESVKGRFIISRDDDKNTVYLQMNNLKSEDTGIYYCAGSYYSGSYLYPSPGGFSVWGQGTQVTVSS | 11.6 nM |
